The values below come from publication PMC8375990, “The flavin monooxygenase Bs3 triggers cell death in plants, impairs growth in yeast and produces H2O2 in vitro” (PLoS ONE, 2021).

In assay [1] the target is T1, Bs3 (Capsicum annuum, UniProt A8TVP6).
T1 construct: gene T459_32270; Gateway recombination site and the two N-terminal methionines deleted
T1 sequence (A8TVP6 3-342): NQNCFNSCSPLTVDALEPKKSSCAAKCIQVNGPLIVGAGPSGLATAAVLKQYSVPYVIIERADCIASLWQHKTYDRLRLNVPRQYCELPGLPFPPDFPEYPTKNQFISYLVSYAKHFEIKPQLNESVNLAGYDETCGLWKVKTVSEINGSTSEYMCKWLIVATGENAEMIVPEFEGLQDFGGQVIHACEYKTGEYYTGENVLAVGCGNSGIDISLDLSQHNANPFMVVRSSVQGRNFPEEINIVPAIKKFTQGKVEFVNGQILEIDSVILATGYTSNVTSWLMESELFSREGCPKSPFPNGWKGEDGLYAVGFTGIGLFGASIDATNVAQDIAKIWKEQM
Kind of assay: UV-vis spectrum of purified protein. It is filed as binding. The note with it: FAD added to lysis buffer; co-purified.

For assay [2], the target named is T2, Bs3 (Capsicum annuum, UniProt A8TVP6, S211A).
T2 construct: gene T459_32270; Gateway recombination site and the two N-terminal methionines deleted
Kind of assay: UV-vis spectrum of purified protein. The format is binding. The note with it: FAD added to lysis buffer; co-purified.

In assay [3] the target is T1, Bs3. Kind of assay: NADPH oxidation, decrease of absorbance at […] nm. The format is biochemical.

For orientation: inhibition means the share of the control response that was lost under treatment. Read a high inhibition as strong suppression.

T2 sequence (A8TVP6 entry or part of it S211A): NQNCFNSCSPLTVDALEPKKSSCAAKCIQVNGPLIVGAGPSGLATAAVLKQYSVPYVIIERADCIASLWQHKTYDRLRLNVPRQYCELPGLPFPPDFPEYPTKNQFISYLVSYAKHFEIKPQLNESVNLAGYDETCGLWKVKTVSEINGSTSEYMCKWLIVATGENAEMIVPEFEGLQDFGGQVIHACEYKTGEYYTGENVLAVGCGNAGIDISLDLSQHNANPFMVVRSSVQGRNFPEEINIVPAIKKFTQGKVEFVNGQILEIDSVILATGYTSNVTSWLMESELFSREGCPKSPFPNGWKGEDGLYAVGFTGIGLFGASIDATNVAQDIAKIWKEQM

`Cc1cc2nc3c(=O)[nH]c(=O)nc-3n(C[C@H](O)[C@H](O)[C@H](O)COP(=O)(O)OP(=O)(O)OC[C@H]3O[C@@H](n4cnc5c(N)ncnc54)[C@H](O)[C@@H]3O)c2cc1C` [FAD]: the “UV-vis spectrum of purified protein” value is “purified Bs3 and Bs3S211A proteins were bright yellow and the UV-vis spectra show characteristic peaks” in assay [1]; “purified Bs3 and Bs3S211A proteins were bright yellow and the UV-vis spectra show characteristic peaks” in assay [2]. Regarding `Cn1cc[nH]c1=S` [methimazole], the inhibition at 50 µM in assay [3] stood at 79%.

As to `Sc1nnc(-c2ccc(Cl)cc2)[nH]1` [yucasin], the inhibition at 50 µM in assay [3] stood at 95%.
